Measurements: patent US11203613B2, “Peptidomimetic proteasome inhibitors” (CORNELL UNIVERSITY, priority 2017, dated 2021)

Biological target: Human Constitutive (Hu C-20S) β5 Active Subunit (Homo sapiens, UniProt P28074)
Assay: IC50 determination, human constitutive 20S proteasome β5c (suc-LLVY-AMC hydrolysis)
Type: biochemical
Conditions: Table 3; IC50 against human constitutive β5 active subunit; read-out: Hu-C20S β5

Row | SMILES | IC50 [µM]
1 | CC(C)CCC(=O)N[C@@H](CC(=O)N(C)C(C)C)C(=O)N[C@@H](C)c1ncc(-c2ccc(F)cc2F)[nH]1 [CEN-78, (S)—N1-((S)-1-(5-(2,4-Difluorophenyl)-1H-imidazol-2-yl)ethyl)-N4-isopropyl-N4-methyl-2-(4-methylpentanamido)succinamide] | 14.9
2 | CCN(CC)C(=O)C[C@H](NC(=O)CCC(C)C)C(=O)N[C@@H](C)c1ncc(-c2ccc(F)cc2F)[nH]1 [CEN-79, (S)—N1-((S)-1-(5-(2,4-Difluorophenyl)-1H-imidazol-2-yl)ethyl)-N4,N4-diethyl-2-(4-methylpentanamido)succinamide] | 7.3
3 | Cc1cc(C(=O)N[C@@H](CC(=O)N2CCCC2)C(=O)N[C@@H](C)c2ncc(-c3ccc(F)cc3F)[nH]2)no1 [CEN-80, N—((S)-1-(((S)-1-(5-(2,4-Difluorophenyl)-1H-imidazol-2-yl)ethyl)amino)-1,4-dioxo-4-(pyrrolidin-1-yl)butan-2-yl)-5-methylisoxazole-3-carboxamide] | 16.7
4 | C[C@H](NC(=O)[C@H](CC(=O)N1CCCC[C@@H]1C)NC(=O)CC1CC1)c1ncc(-c2ccc(F)cc2F)[nH]1 [CEN-81, (S)-2-(2-Cyclopropylacetamido)-N—((S)-1-(5-(2,4-difluorophenyl)-1H-imidazol-2-yl)ethyl)-4-((S)-2-methylpiperidin-1-yl)-4-oxobutanamide] | 10.5
5 | C[C@H](NC(=O)[C@H](CC(=O)N1CCCC[C@@H]1C)NC(=O)C1CCC1)c1ncc(-c2ccc(F)cc2F)[nH]1 [CEN-82, N—((S)-1-(((S)-1-(5-(2,4-Difluorophenyl)-1H-imidazol-2-yl)ethyl)amino)-4-((S)-2-methylpiperidin-1-yl)-1,4-dioxobutan-2-yl)cyclobutanecarboxamide] | 2.4
6 | C[C@H](NC(=O)[C@H](CC(=O)N1CCCC1)NC(=O)CCC(C)(C)C)c1ncc(-c2ccc(F)cc2F)[nH]1 [CEN-83, N—((S)-1-(((S)-1-(5-(2,4-Difluorophenyl)-1H-imidazol-2-yl)ethyl)amino)-1,4-dioxo-4-(pyrrolidin-1-yl)butan-2-yl)-4,4-dimethylpentanamide] | 10.3
7 | CC(C)CCC(=O)N[C@@H](CC(=O)N1CCCCC1)C(=O)N[C@@H](C)c1ncc(-c2ccc(F)cc2F)[nH]1 [CEN-84, N—((S)-1-(((S)-1-(5-(2,4-Difluorophenyl)-1H-imidazol-2-yl)ethyl)amino)-1,4-dioxo-4-(piperidin-1-yl)butan-2-yl)-4-methylpentanamide] | 7.3
8 | CC(C)C(=O)CN[C@@H](CC(=O)N1CCCC[C@@H]1C)C(=O)N[C@@H](C)c1ncc(-c2ccc(F)cc2F)[nH]1 [CEN-85, (S)—N—((S)-1-(5-(2,4-Difluorophenyl)-1H-imidazol-2-yl)ethyl)-2-((3-methyl-2-oxobutyl)amino)-4-((S)-2-methylpiperidin-1-yl)-4-oxobutanamide] | 9.9
9 | CCS(=O)(=O)N[C@@H](CC(=O)N1CCCC[C@@H]1C)C(=O)N[C@@H](C)c1ncc(-c2ccc(F)cc2F)[nH]1 [CEN-86, (S)—N—((S)-1-(5-(2,4-Difluorophenyl)-1H-imidazol-2-yl)ethyl)-2-(ethylsulfonamido)-4-((S)-2-methylpiperidin-1-yl)-4-oxobutanamide] | 28.2
10 | C[C@H](NC(=O)[C@H](CC(=O)N1CCCC[C@@H]1C)NC(=O)CCC1CC1)c1ncc(-c2ccc(F)cc2F)[nH]1 [CEN-87, (S)-2-(3-Cyclopropylpropanamido)-N—((S)-1-(5-(2,4-difluorophenyl)-1H-imidazol-2-yl)ethyl)-4-((S)-2-methylpiperidin-1-yl)-4-oxobutanamide] | 11.7
11 | CC(C)CCC(=O)N[C@@H](CC(=O)N1CCCC[C@@H]1C)C(=O)N[C@@H](C)c1ncc(-c2ccc(F)cc2F)[nH]1 [CEN-88, N—((S)-1-(((S)-1-(5-(2,4-Difluorophenyl)-1H-imidazol-2-yl)ethyl)amino)-4-((S)-2-methylpiperidin-1-yl)-1,4-dioxobutan-2-yl)-4-methylpentanamide] | 15.1
12 | C[C@H](NC(=O)[C@H](CC(=O)N1CCC[C@@H]1C)NC(=O)CCC(C)(C)C)c1ncc(-c2ccc(F)cc2F)[nH]1 [CEN-89, N—((S)-1-(((S)-1-(5-(2,4-Difluorophenyl)-1H-imidazol-2-yl)ethyl)amino)-4-((S)-2-methylpyrrolidin-1-yl)-1,4-dioxobutan-2-yl)-4,4-dimethylpentanamide] | 5.7
13 | CC(C)CCC(=O)N[C@@H](CC(=O)N1CCCCCC1)C(=O)N[C@@H](C)c1ncc(-c2ccc(F)cc2F)[nH]1 [CEN-90, N—((S)-4-(Azepan-1-yl)-1-(((S)-1-(5-(2,4-difluorophenyl)-1H-imidazol-2-yl)ethyl)amino)-1,4-dioxobutan-2-yl)-4-methylpentanamide] | 10.2
14 | CC(C)CCC(=O)N[C@@H](CC(=O)N1CCCC[C@H]1C)C(=O)N[C@@H](C)c1ncc(-c2ccc(F)cc2F)[nH]1 [CEN-91, N—((S)-1-(((S)-1-(5-(2,4-Difluorophenyl)-1H-imidazol-2-yl)ethyl)amino)-4-((R)-2-methylpiperidin-1-yl)-1,4-dioxobutan-2-yl)-4-methylpentanamide] | 10.5
15 | CC(C)CCC(=O)N[C@@H](CC(=O)N1CCOC[C@@H]1C)C(=O)N[C@@H](C)c1ncc(-c2ccc(F)cc2F)[nH]1 [CEN-92, N—((S)-1-(((S)-1-(5-(2,4-Difluorophenyl)-1H-imidazol-2-yl)ethyl)amino)-4-((S)-3-methylmorpholino)-1,4-dioxobutan-2-yl)-4-methylpentanamide] | 15.2
16 | C[C@H](NC(=O)[C@H](CC(=O)N1CCCC[C@@H]1C)NC(=O)c1cn(C)cn1)c1ncc(-c2ccc(F)cc2F)[nH]1 [CEN-93, N—((S)-1-(((S)-1-(5-(2,4-Difluorophenyl)-1H-imidazol-2-yl)ethyl)amino)-4-((S)-2-methylpiperidin-1-yl)-1,4-dioxobutan-2-yl)-1-methyl-1H-imidazole-4-carboxamide] | 10.9
17 | Cc1cc(C(=O)N[C@@H](CC(=O)N2CCCC[C@@H]2C)C(=O)N[C@@H](C)c2ncc(-c3ccc(F)cc3F)[nH]2)no1 [CEN-94, N—((S)-1-(((S)-1-(5-(2,4-Difluorophenyl)-1H-imidazol-2-yl)ethyl)amino)-4-((S)-2-methylpiperidin-1-yl)-1,4-dioxobutan-2-yl)-5-methylisoxazole-3-carboxamide] | 5.5
18 | CC(C)c1noc(N[C@@H](CC(=O)N2CCCC[C@@H]2C)C(=O)N[C@@H](C)c2ncc(-c3ccc(F)cc3F)[nH]2)n1 [CEN-95, (S)—N—((S)-1-(5-(2,4-Difluorophenyl)-1H-imidazol-2-yl)ethyl)-2-((3-isopropyl-1,2,4-oxadiazol-5-yl)amino)-4-((S)-2-methylpiperidin-1-yl)-4-oxobutanamide] | 2.3
19 | C[C@H](NC(=O)[C@H](CC(=O)N1CCCC[C@@H]1C)NC(=O)C1CC(C)(C)C1)c1ncc(-c2ccc(F)cc2F)[nH]1 [CEN-96, N—((S)-1-(((S)-1-(5-(2,4-difluorophenyl)-1H-imidazol-2-yl)ethyl)amino)-4-((S)-2-methylpiperidin-1-yl)-1,4-dioxobutan-2-yl)-3,3-dimethylcyclobutane-1-carboxamide] | 5.7
20 | CC(C)C1CC1C(=O)N[C@@H](CC(=O)N1CCCC[C@@H]1C)C(=O)N[C@@H](C)c1ncc(-c2ccc(F)cc2F)[nH]1 (stereo partly drawn) [CEN-97, N—((S)-1-(((S)-1-(5-(2,4-Difluorophenyl)-1H-imidazol-2-yl)ethyl)amino)-4-((S)-2-methylpiperidin-1-yl)-1,4-dioxobutan-2-yl)-2-isopropylcyclopropane-1-carboxamide] | 4.8
21 | C[C@H](NC(=O)[C@H](CC(=O)N1CCCC[C@@H]1C)NC(=O)c1cncs1)c1ncc(-c2ccc(F)cc2F)[nH]1 [CEN-98, N—((S)-1-(((S)-1-(5-(2,4-Difluorophenyl)-1H-imidazol-2-yl)ethyl)amino)-4-((S)-2-methylpiperidin-1-yl)-1,4-dioxobutan-2-yl)thiazole-5-carboxamide] | 7.1
22 | C[C@H](NC(=O)[C@H](CC(=O)N1CCCC[C@@H]1C)NC(=O)CCC(C)(C)C)c1ncc(-c2ccc(F)cc2F)[nH]1 [CEN-99, N—((S)-1-(((S)-1-(5-(2,4-Difluorophenyl)-1H-imidazol-2-yl)ethyl)amino)-4-((S)-2-methylpiperidin-1-yl)-1,4-dioxobutan-2-yl)-4,4-dimethylpentanamide] | 8.5
23 | CC[C@H]1CCCCN1C(=O)C[C@H](NC(=O)CCC(C)C)C(=O)N[C@@H](C)c1ncc(-c2ccc(F)cc2F)[nH]1 [CEN-100, N—((S)-1-(((S)-1-(5-(2,4-Difluorophenyl)-1H-imidazol-2-yl)ethyl)amino)-4-((S)-2-ethylpiperidin-1-yl)-1,4-dioxobutan-2-yl)-4-methylpentanamide] | 4.4
24 | C[C@H](NC(=O)N(CC(=O)N1CCCC[C@@H]1C)NC(=O)CCC(C)(C)C)c1ncc(-c2ccc(F)cc2F)[nH]1 [CEN-101, N—((S)-1-(5-(2,4-Difluorophenyl)-1H-imidazol-2-yl)ethyl)-2-(4,4-dimethylpentanoyl)-1-(2-((S)-2-methylpiperidin-1-yl)-2-oxoethyl)hydrazine-1-carboxamide] | 7.6
25 | C[C@H](NC(=O)[C@H](CC(=O)N1CCCC[C@@H]1C)NC(=O)Cc1ccccc1)c1ncc(-c2ccc(F)cc2F)[nH]1 [CEN-102, (S)—N—((S)-1-(5-(2,4-Difluorophenyl)-1H-imidazol-2-yl)ethyl)-4-((S)-2-methylpiperidin-1-yl)-4-oxo-2-(2-phenylacetamido)butanamide] | 10.2
26 | C[C@H](NC(=O)[C@H](CC(=O)N1CCCC[C@@H]1C)NCC(=O)c1ccccc1)c1ncc(-c2ccc(F)cc2F)[nH]1 [CEN-103, (S)—N—((S)-1-(5-(2,4-Difluorophenyl)-1H-imidazol-2-yl)ethyl)-4-((S)-2-methylpiperidin-1-yl)-4-oxo-2-((2-oxo-2-phenylethyl)amino)butanamide] | 15.2
27 | CC(C)CS(=O)(=O)N[C@@H](CC(=O)N1CCCC[C@@H]1C)C(=O)N[C@@H](C)c1ncc(-c2ccc(F)cc2F)[nH]1 [CEN-104, (S)—N—((S)-1-(5-(2,4-Difluorophenyl)-1H-imidazol-2-yl)ethyl)-4-((S)-2-methylpiperidin-1-yl)-2-((2-methylpropyl)sulfonamido)-4-oxobutanamide] | 4.9
